The subject of test [1] is Saccharomyces cerevisiae FHCRC 50514. The test is described as follows: Disk diffusion assay, antifungal bioactivity. Format: cell-based. The conditions noted are these: 37° C., 24 hours. Here is the method:
Antifungal bioactivity of Compound 1 (0506), in comparison to Amphotericin B, against Saccharomyces cerevisiae FHCRC 50514 was determined using a disk diffusion assay. Such an assay is commonly used to reveal activity of antifungal drugs against fungi (Wong G K, Griffith S, Kojima I and Demain A L, J. Antibiotics, 51(5): 487-491, 1998).
Inoculum (100 μL) was added to 100 mL of RPMI agar (kept at 55° C.) to give a final suspension of about 1×10^5 CFU/mL, and poured into 150 mm Petri dishes. Plates were used immediately upon setting of the agar.
Compound 1 (0506) was diluted in DMSO to a concentration of 3.2 mg/mL. A 20 μL sample (64 μg) was deposited on the agar surface of prepared plates. Amphotericin solution in DMSO (5 mg/mL; 10 μL; 50 μg) was also deposited, in a separate location, on the agar surface. A negative control (10 μL of stock solution) was also deposited in a separate location on the surface of the agar. The plates were incubated at 37° C. for 24 hours.

In test [2] the target is T1, Angiotensin Converting Enzyme (Oryctolagus cuniculus, UniProt P12822).
T1 construct: ACE: Source: rabbit lung; from tissue; host or cells: rabbit lung
T1 sequence (P12822 34-1310): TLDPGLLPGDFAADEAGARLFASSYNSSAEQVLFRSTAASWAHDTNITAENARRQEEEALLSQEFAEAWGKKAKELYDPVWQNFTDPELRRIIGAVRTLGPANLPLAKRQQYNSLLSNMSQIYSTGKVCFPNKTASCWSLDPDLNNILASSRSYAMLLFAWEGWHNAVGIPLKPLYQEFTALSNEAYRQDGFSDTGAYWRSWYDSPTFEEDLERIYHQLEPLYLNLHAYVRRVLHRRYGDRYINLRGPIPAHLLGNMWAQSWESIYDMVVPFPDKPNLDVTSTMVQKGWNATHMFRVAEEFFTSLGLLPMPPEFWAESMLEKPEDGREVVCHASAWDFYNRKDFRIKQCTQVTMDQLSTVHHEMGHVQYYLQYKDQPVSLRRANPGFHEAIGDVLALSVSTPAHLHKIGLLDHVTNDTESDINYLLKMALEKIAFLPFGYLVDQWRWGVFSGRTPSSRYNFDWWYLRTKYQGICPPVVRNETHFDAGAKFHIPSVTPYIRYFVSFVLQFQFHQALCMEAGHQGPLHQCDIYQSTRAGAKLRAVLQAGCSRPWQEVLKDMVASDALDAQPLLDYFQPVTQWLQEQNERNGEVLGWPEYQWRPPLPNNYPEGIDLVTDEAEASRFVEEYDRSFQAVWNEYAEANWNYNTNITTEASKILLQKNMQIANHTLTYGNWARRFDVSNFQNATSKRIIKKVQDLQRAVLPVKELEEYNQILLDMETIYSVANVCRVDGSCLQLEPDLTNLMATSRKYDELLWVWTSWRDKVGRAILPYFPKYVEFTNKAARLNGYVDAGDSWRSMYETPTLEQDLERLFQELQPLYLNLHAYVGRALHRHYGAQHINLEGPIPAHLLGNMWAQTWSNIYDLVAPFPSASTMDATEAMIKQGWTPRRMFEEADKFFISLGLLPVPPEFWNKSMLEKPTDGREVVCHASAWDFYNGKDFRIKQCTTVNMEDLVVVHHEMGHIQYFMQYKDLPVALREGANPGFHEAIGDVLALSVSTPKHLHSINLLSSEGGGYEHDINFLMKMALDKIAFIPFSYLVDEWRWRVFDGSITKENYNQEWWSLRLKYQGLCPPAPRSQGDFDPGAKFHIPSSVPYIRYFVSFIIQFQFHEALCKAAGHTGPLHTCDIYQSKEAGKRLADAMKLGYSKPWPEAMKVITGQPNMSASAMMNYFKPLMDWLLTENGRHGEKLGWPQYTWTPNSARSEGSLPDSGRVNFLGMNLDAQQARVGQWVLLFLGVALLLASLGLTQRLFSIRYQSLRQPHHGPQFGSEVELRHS
As to the kind of experiment: ACE enzyme inhibition assay (spectrometric quantitation of FAPGG). In kind it is biochemical. The conditions noted are these: 10 μM in 1% DMSO; rabbit lung enzyme.

The target in test [3] is T2, Protein Serine/Threonine Kinase MEK1 (Oryctolagus cuniculus, UniProt P29678).
T2 construct: made in house; host or cells: E. coli
As to the kind of experiment: MEK1 enzyme inhibition assay (Elisa quantitation of MBP-P). In kind it is biochemical. Conditions: 10 μM in 1% DMSO; rabbit recombinant E. coli.

The target in test [4] is T3, Adenosine A3 Receptor (Homo sapiens, UniProt P0DMS8).
T3 sequence (P0DMS8 1-318): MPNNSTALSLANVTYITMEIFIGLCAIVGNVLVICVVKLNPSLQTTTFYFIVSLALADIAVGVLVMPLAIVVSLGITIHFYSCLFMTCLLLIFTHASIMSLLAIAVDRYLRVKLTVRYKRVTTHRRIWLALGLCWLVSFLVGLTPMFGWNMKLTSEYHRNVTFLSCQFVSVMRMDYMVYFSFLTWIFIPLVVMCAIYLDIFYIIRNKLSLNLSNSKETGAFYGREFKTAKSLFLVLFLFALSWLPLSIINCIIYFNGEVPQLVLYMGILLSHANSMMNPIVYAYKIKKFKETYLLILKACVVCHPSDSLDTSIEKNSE
As to the kind of experiment: Adenosine A3 radioligand binding assay. Also on record: expressed in transfected cells; host or cells: CHO-K1 cells. The conditions noted are these: 10 μM in 1% DMSO; human recombinant CHO-K1 cells; negative value = stimulation of binding.

The subject of test [5] is Saccharomyces cerevisiae Δpdr1/pdr3/erg6 (FHCRC 50514). As to the kind of experiment: Broth dilution antifungal susceptibility (NCCLS M27A), MIC. The conditions noted are these: 48 h, read-out: minimum inhibitory concentration (MIC).
Test [6] deals with T3, Adenosine A3 Receptor. Conditions: radioligand, historical value; cited from earlier work.
The test system of test [7] is Candida indicators. The test is described as follows: Bioactivity screen of HPLC/MS fractions of organism 100 extracts. The conditions noted are these: compound of mass 1113 Da from organism 100 extracts. Format: cell-based. Here is the method: An extract containing the putative polyene was obtained from organism 100 using a metabolomic approach to identify conditions under which the product of locus 100C was expressed. This approach obtains analytical measurement of all low molecular weight metabolites in a given organism at a specific time when grown under specific culture conditions. Organism 100 was grown in 48 different media, namely AA, AB, AC, BA, CA, CB, CI, DA, DY, DZ, EA, ES, ET, FA, GA, IB, JA, KA, KE, LA, MA, MC, MU, NA, NE, NF, NG, OA, PA, PB, QB, RA, RB, RC, RM, SF, SP, TA, VA, VB, WA, WS, XA, YA, ZA. Metabolites were extracted from whole cell cultures by adding of an equal volume of methanol. After removal of solid debris, the extract was concentrated and injected into an HPLC/MS system in which the metabolites were analyzed to obtain UV and mass data and purified fractions are collected in 96-well plates and assayed for multiple activities including antibiotic activity against gram-positive and gram-negative bacteria, and fungi.
Finally, the extracts generated by growth of organism 100 under each of the 48 media were analyzed for metabolites having physical, chemical and biological characteristics of polyenes. […]

In brackets after ≈: the same amount, converted by molar mass.

T2 sequence (P29678 whole entry): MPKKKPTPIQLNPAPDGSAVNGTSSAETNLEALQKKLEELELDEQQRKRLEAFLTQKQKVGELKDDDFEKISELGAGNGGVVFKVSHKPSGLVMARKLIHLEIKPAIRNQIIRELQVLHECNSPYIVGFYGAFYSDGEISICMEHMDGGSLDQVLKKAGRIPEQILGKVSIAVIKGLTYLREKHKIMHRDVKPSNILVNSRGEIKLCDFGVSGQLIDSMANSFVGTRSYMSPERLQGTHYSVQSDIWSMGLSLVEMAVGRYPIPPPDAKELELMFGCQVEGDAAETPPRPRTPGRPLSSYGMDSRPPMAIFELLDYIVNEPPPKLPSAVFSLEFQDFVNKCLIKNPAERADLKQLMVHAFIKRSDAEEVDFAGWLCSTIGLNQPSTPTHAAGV

For `C[C@@H]1[C@H](O)[C@@H](C)/C=C/C=C/C=C/C=C/C=C/C=C/C=C/[C@H](O[C@@H]2O[C@H](C)[C@@H](O)[C@H](N)[C@@H]2O)C[C@@H]2O[C@](O)(C[C@@H](O)C[C@@H](O)[C@H](O)CC[C@@H](O)C[C@@H](O)CC(=O)O[C@H]1C)C[C@H](O)[C@H]2C(=O)O` [Amphotericin B, reference compound], the “zone of inhibition (diameter)” value in test [1] (at 50 μg deposited on agar) turned out to be 23.9 mm.
What is called inhibition is the change of the read-out against control, counted positive when it falls. On to `CNC(CCCN(O)C(=O)C(CO)NC(=O)C(N)CCCN(C=O)C(=N)N)C(=O)NC(CO)C(=O)NC(CO)C(=O)NC(CCC(N)=O)C(=O)O` (stereo not drawn) [Compound 1 (0506)], for which the “zone of inhibition (diameter)” value in test [1] (at 64 μg deposited on agar) worked out at 36.4 mm. Further, the inhibition at 10 µM in test [2] is 50%; in test [3] it was 63%; in test [4], -101%.
With `C/C=C(\C)C(O)C(C)/C=C/C=C(\C)CCC(O)CC1=C(C)C(=O)C(C)(O)O1` (stereo not drawn) [Compound 2], the MIC in test [5] worked out at 64 µg/mL (≈ 169 µM).
Still for that read-out and setting: the same measure for `OC(Cn1cncn1)(Cn1cncn1)c1ccc(F)cc1F` [Fluconazole, reference compound]: 0.25 to 0.5 µg/mL (≈ 0.816 to 1.63 µM).
As usually defined, the Kd is the free concentration of one partner at which half of the binding sites on the other are occupied at equilibrium, for simple one-to-one binding. Take `COc1cc2nc(N3CCN(C(=O)c4ccco4)CC3)nc(N)c2cc1OC` [[H3] Prazosin, Prazosin]: the dissociation constant (Kd) in test [6] was 0.29 nM.
With `CC1/C=C/C=C/C=C/C=C/C=C/C=C/C=C/C(OC2O[C@H](C)C(O)[C@H](N)C2O)CC2OC(O)(CC(O)CC(O)CC(O)CC(O)C[C@H](O)CC(O)CC(=O)OC1C(C)CCC(O)CC(=O)c1ccc(N)cc1)CC(O)C2C(=O)O` (stereo partly drawn) [ayfactin], the antifungal activity result in test [7] is given as “antifungal activity”.

Source of the values: patent US20070061084A1, “Method, system, and knowledge repository for identifying a secondary metabolite from a microorganism” (Ecopia BioSciences, Inc., priority 2002, published 2007).
